Values after ≈ are worked out from the molar mass of the structure shown.
How the values were obtained:
Assay in all cases: Broth microdilution MIC, Example 7 (NCL812 and analogues)
Pseudomonas aeruginosa = format: cell-based; details: 24 hours
VRE = format: cell-based, Enterococcus spp.; details: for activity against VRE among analogues: MIC testing, two VRE strains
Method: (§1) Minimum inhibitory concentrations (μg/ml) were determined using the broth microdilution method recommended by the Clinical and Laboratory Standards Institute (CLSI). MIC breakpoints were determined by visual assessment and then confirmed using an ELISA plate reader, measuring absorbance levels at 600 nm. Bacterial growth (turbidity) in the wells with antimicrobial was compared with the amount of growth (turbidity) in the growth-control well (containing no antimicrobial). All isolates were tested in duplicate, if there was a difference of greater than one two-fold dilution in the results, the test was repeated a third time. The purity of the isolates was closely monitored during testing by subculturing the prepared bacterial inoculum onto SBA (sheep blood agar). […] The MIC50, MIC20 and MIC range (minimum and maximum) were calculated for each of the bacterial groups.
(§2) MICs were determined against two MRSA strains, two VRE strains and one strain each of E. coli and Pseudomonas aeruginosa.

Escherichia coli = format: cell-based; details: 24 hours
MRSA = format: cell-based, Staphylococcus aureus; details: for activity against MRSA among analogues: MIC testing, two MRSA strains
Method: as §1, §2

[1] = isolate VRE 1, 1st and 2nd replicate rows
[2] = isolate VRE 2, 1st and 2nd replicate rows
[3] = isolate MRSA 1, 1st and 2nd replicate rows
[4] = isolate MRSA 2, 1st and 2nd replicate rows
[5] = P. aeruginosa, duplicate lines per compound
[6] = VRE 1, duplicate lines per compound
[7] = VRE 2, duplicate lines per compound
[8] = E. coli, duplicate lines per compound
[9] = MRSA 1, duplicate lines per compound
[10] = MRSA 2, duplicate lines per compound

| Compound | MIC (μg/ml) at 24 hours, P. aeruginosa (Pseudomonas aeruginosa; 1st and 2nd replicate rows) | MIC (μg/ml) at 24 hours, VRE 1 (VRE; [1]) | MIC (μg/ml) at 24 hours, VRE 2 (VRE; [2]) | MIC (μg/ml) at 24 hours, E. coli (Escherichia coli; 1st and 2nd replicate rows) | MIC (μg/ml) at 24 hours, MRSA 1 (MRSA; [3]) | MIC (μg/ml) at 24 hours, MRSA 2 (MRSA; [4]) | MIC (μg/ml) at 24 hours, P. aeruginosa (Pseudomonas aeruginosa; [5]) | MIC (μg/ml) at 24 hours, VRE 1 (VRE; [6]) | MIC (μg/ml) at 24 hours, VRE 2 (VRE; [7]) | MIC (μg/ml) at 24 hours, E. coli (Escherichia coli; [8]) | MIC (μg/ml) at 24 hours, MRSA 1 (MRSA; [9]) | MIC (μg/ml) at 24 hours, MRSA 2 (MRSA; [10]) | activity against VRE among analogues (VRE) | activity against MRSA among analogues (MRSA) |
| --- | --- | --- | --- | --- | --- | --- | --- | --- | --- | --- | --- | --- | --- | --- |
| Cc1cccc(/C=N/NC(=N)N)c1.Cl [NCL046] | >128 µg/mL | >128 µg/mL | >128 µg/mL | >128 µg/mL | >128 µg/mL | >128 µg/mL |  |  |  |  |  |  |  |  |
| NC(=O)N/N=C/c1cccc(Cl)c1 [NCL055] | >128 µg/mL | >128 µg/mL | >128 µg/mL | >128 µg/mL | >128 µg/mL | >128 µg/mL |  |  |  |  |  |  |  |  |
| NC(=O)N/N=C/c1ccc(F)cc1 [NCL056] | >128 µg/mL | >128 µg/mL | >128 µg/mL | >128 µg/mL | >128 µg/mL | >128 µg/mL |  |  |  |  |  |  |  |  |
| NC(=O)N/N=C/c1ccccc1C(F)(F)F [NCL060] | >128 µg/mL | >128 µg/mL | >128 µg/mL | >128 µg/mL | >128 µg/mL | >128 µg/mL |  |  |  |  |  |  |  |  |
| CC(=NNC(=N)NN=C(C)c1ccc(C(F)(F)F)cc1)c1ccc(C(F)(F)F)cc1.Cl [NCL061] | >128 µg/mL | >128 µg/mL | 8 µg/mL | >128 µg/mL | >128 µg/mL | >128 µg/mL |  |  |  |  |  |  | greatest activity |  |
| FC(F)(F)c1ccc(C=NNC(=S)NN=Cc2ccc(C(F)(F)F)cc2)cc1 [NCL063] | >128 µg/mL | >128 µg/mL | >128 µg/mL | >128 µg/mL | >128 µg/mL | >128 µg/mL |  |  |  |  |  |  |  |  |
| N#Cc1ccccc1C=NNC(=S)NN=Cc1ccccc1C#N [NCL064] | >128 µg/mL | >128 µg/mL | >128 µg/mL | >128 µg/mL | >128 µg/mL | >128 µg/mL |  |  |  |  |  |  |  |  |
| N#Cc1cccc(/C=N/NC(=S)N/N=C/c2cccc(C#N)c2)c1 [NCL065] | >128 µg/mL | >128 µg/mL | >128 µg/mL | >128 µg/mL | >128 µg/mL | >128 µg/mL |  |  |  |  |  |  |  |  |
| S=C(N/N=C/c1cccc(Cl)c1)N/N=C/c1cccc(Cl)c1 [NCL070] | >128 µg/mL | >128 µg/mL | 32 µg/mL (≈ 91.1 µM) | >128 µg/mL | >128 µg/mL | >128 µg/mL |  |  |  |  |  |  | greatest activity |  |
| C/C(=N\NC(=N)N/N=C/c1ccc(C(F)(F)F)cc1)c1ccc(C(F)(F)F)cc1.Cl [NCL075] |  |  |  |  |  |  | >128 µg/mL | >128 µg/mL | >128 µg/mL | >128 µg/mL | >128 µg/mL | >128 µg/mL |  |  |
| Cl.N=C(N/N=C/c1ccc(Cl)cc1)N/N=C/c1ccc(C(F)(F)F)cc1 [NCL077] |  |  |  |  |  |  | >128 µg/mL | >128 µg/mL | >128 µg/mL | >128 µg/mL | >128 µg/mL | >128 µg/mL |  |  |

Second part, led by results:

| MIC (μg/ml) at 24 hours, P. aeruginosa (Pseudomonas aeruginosa; 1st and 2nd replicate rows) | MIC (μg/ml) at 24 hours, VRE 1 (VRE; [1]) | MIC (μg/ml) at 24 hours, VRE 2 (VRE; [2]) | MIC (μg/ml) at 24 hours, E. coli (Escherichia coli; 1st and 2nd replicate rows) | MIC (μg/ml) at 24 hours, MRSA 1 (MRSA; [3]) | MIC (μg/ml) at 24 hours, MRSA 2 (MRSA; [4]) | MIC (μg/ml) at 24 hours, P. aeruginosa (Pseudomonas aeruginosa; [5]) | MIC (μg/ml) at 24 hours, VRE 1 (VRE; [6]) | MIC (μg/ml) at 24 hours, VRE 2 (VRE; [7]) | MIC (μg/ml) at 24 hours, E. coli (Escherichia coli; [8]) | MIC (μg/ml) at 24 hours, MRSA 1 (MRSA; [9]) | MIC (μg/ml) at 24 hours, MRSA 2 (MRSA; [10]) | Compound | activity against VRE among analogues (VRE) | activity against MRSA among analogues (MRSA) |
| --- | --- | --- | --- | --- | --- | --- | --- | --- | --- | --- | --- | --- | --- | --- |
| >128 µg/mL | >128 µg/mL | >128 µg/mL | >128 µg/mL | >128 µg/mL | >128 µg/mL |  |  |  |  |  |  | NC(=O)N/N=C/c1ccccc1Cl [NCL047] |  |  |
| >128 µg/mL | >128 µg/mL | >128 µg/mL | >128 µg/mL | >128 µg/mL | >128 µg/mL |  |  |  |  |  |  | NC(=O)N/N=C/c1ccccc1F [NCL048] |  |  |
| >128 µg/mL | >128 µg/mL | >128 µg/mL | >128 µg/mL | >128 µg/mL | >128 µg/mL |  |  |  |  |  |  | N#Cc1ccc(/C=N/NC(N)=O)cc1 [NCL049] |  |  |
| >128 µg/mL | >128 µg/mL | >128 µg/mL | >128 µg/mL | >128 µg/mL | >128 µg/mL |  |  |  |  |  |  | N#Cc1ccccc1/C=N/NC(N)=O [NCL050] |  |  |
| >128 µg/mL | >128 µg/mL | >128 µg/mL | >128 µg/mL | >128 µg/mL | >128 µg/mL |  |  |  |  |  |  | N#Cc1cccc(/C=N/NC(N)=O)c1 [NCL051] |  |  |
| >128 µg/mL | >128 µg/mL | >128 µg/mL | >128 µg/mL | >128 µg/mL | >128 µg/mL |  |  |  |  |  |  | NC(=O)N/N=C/c1cccc(F)c1 [NCL057] |  |  |
| >128 µg/mL | >128 µg/mL | >128 µg/mL | >128 µg/mL | >128 µg/mL | >128 µg/mL |  |  |  |  |  |  | COc1ccc(/C=N/NC(N)=O)cc1 [NCL058] |  |  |
| >128 µg/mL | >128 µg/mL | >128 µg/mL | >128 µg/mL | >128 µg/mL | >128 µg/mL |  |  |  |  |  |  | COc1cccc(/C=N/NC(N)=O)c1 [NCL059] |  |  |
| >128 µg/mL | >128 µg/mL | >128 µg/mL | >128 µg/mL | >128 µg/mL | >128 µg/mL |  |  |  |  |  |  | Fc1cccc(/C=N/NC(=S)N/N=C/c2cccc(F)c2)c1 [NCL066] |  |  |
| >128 µg/mL | >128 µg/mL | >128 µg/mL | >128 µg/mL | >128 µg/mL | >128 µg/mL |  |  |  |  |  |  | NC(=O)N/N=C/c1cccc(C(F)(F)F)c1 [NCL067] |  |  |
| >128 µg/mL | >128 µg/mL | >128 µg/mL | >128 µg/mL | >128 µg/mL | >128 µg/mL |  |  |  |  |  |  | C/C(=N\NC(=N)N/N=C/c1ccc(C(F)(F)F)cc1)c1ccc(Cl)cc1.Cl [NCL068] |  |  |
| >128 µg/mL | 128 µg/mL | 64 µg/mL | >128 µg/mL | 128 µg/mL | 128 µg/mL |  |  |  |  |  |  | CC(=NNC(=N)NN)c1ccc(Cl)cc1.Cl [NCL069] | greatest activity | greatest activity |
|  |  |  |  |  |  | >128 µg/mL | 64 µg/mL | 64 µg/mL | >128 µg/mL | 32 µg/mL | 64 µg/mL | Cl.N=C(NN)NN=Cc1ccc(Cl)cc1 [NCL072] | greatest activity | greatest activity |
|  |  |  |  |  |  | >128 µg/mL | 16 µg/mL | 64 µg/mL | >128 µg/mL | 128 µg/mL | 128 µg/mL | CC(=NNC(=N)NN)c1ccc(C(F)(F)F)cc1.Cl [NCL073] | greatest activity | greatest activity |
|  |  |  |  |  |  | >128 µg/mL | >128 µg/mL | >128 µg/mL | >128 µg/mL | >128 µg/mL | >128 µg/mL | Cc1ccc(C=NNC(=N)NN=Cc2ccc(Cl)cc2)cc1.Cl [NCL076] |  |  |
